{"source": "paper PMC7710018", "about": "“Restoration of motor learning in a mouse model of Rett syndrome following long-term treatment with a novel small-molecule activator of TrkB” (Disease Models & Mechanisms, 2020)", "key": {"[1]": {"system": "heterozygous (Het) female Mecp2 mutant mice", "assay": "Phenotype severity score", "assay_type": "in vivo, mouse", "settings": "for group average phenotype severity score: 5 mg/kg q72 hrs", "experimental": "Group Pre‐Treatment Week 2 Week 4 Week 6 Week 8\nTable S3. Group average bi-weekly phenotype severity scores after repeated dosing with PTX-BD4-3 (5 mg/kg, q72 hrs). Animals were assigned aggregate scores of phenotypic severity based on visual assessments of mobility, hind limb clasping, gait analysis, tremors, respiration and overall physical condition (scoring range = 0-12; Guy et al., 2007). The phenotype severity scores of Het animals […]\n(also on this page, place not known: tr eatment Disease Models & Mechanisms: doi:10.1242/dmm.044685: Supplementary information Disease Models & Mechanisms • Supplementary information) […]"}, "[2]": {"system": "heterozygous (Het) female Mecp2 mutant mice", "assay": "Whole-body plethysmography (apnea index)", "assay_type": "in vivo, mouse", "experimental": "Small-molecule compounds were diluted in saline and delivered by i.p. injection. To define the acute effects of single drug treatments, behavioral testing was initiated 1 h after dosing. Durable effects of single drug treatments were evaluated 24 h after dosing. To define the effects of repeated dosing, mice were treated once every 3 days (q72 h) for 4 or 8 weeks, and behavioral testing was performed 24 h after the last dose.\nBreathing was recorded in unrestrained Wt and Het mice using a whole-body plethysmograph (EMMS Systems), in which a constant bias flow supply connected to the animal recording chamber ensured continuous inflow of fresh air (1 l/min) and ambient temperature was maintained between 23°C and 25°C. Animals were allowed to acclimate in the recording chambers for 30 min, and respiratory data were collected for the next 3 h. Because respiration is strongly influenced by behavioral state, data were only analyzed from periods of quiet breathing, which was defined as periods when the animal was not moving and had all four paws on the chamber floor. In most experiments, aggregated episodes of quiet breathing totaling at least 10 min were used for analysis. […] Apneas were defined as breathing pauses longer than 2× the average total breath duration (Ttot) measured during quiet breathing and are reported here as apneas/min (apnea index)."}, "5-HT2A (h)": {"target": "T1, 5-HT2A (h) (Homo sapiens, UniProt P28223)", "T1 construct": "purchased Cerep (ExpresSProfile)", "T1 sequence (P28223 whole entry)": "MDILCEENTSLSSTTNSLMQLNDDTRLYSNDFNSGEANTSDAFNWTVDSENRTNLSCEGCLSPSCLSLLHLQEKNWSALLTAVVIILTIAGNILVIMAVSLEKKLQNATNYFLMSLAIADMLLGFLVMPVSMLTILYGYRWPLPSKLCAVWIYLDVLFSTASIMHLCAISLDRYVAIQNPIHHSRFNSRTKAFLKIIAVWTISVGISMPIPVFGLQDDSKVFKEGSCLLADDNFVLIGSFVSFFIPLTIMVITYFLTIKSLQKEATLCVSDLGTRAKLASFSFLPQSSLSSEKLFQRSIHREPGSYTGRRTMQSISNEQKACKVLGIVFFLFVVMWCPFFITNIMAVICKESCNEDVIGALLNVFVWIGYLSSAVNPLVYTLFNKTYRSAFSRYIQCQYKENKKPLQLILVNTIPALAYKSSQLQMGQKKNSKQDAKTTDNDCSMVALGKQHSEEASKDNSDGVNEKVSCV", "assay": "Cerep ExpresSProfile radioligand binding", "settings": "10 micromolar, antagonist radioligand", "experimental": "(§1) To evaluate the relative binding specificity of LM22A-4 ([Massa et al., 2010]) and PTX-BD4-3, binding to a broad range of 55 pharmacologically relevant receptors, including numerous neurotransmitter and G-protein coupled receptors was assessed using standard radioligand competition binding assays (ExpressSProfile) performed by Cerep, Inc. (Seattle, WA, USA). In addition, ADME-Tox analysis was performed by Cerep, Inc. All experimental conditions are described on the Cerep website (www.cerep.fr).\n(§2) Ligand % Inhibition of Control Specific […]\n(§3) 48 Ca2+ channel (L, verapamil site) 0 ‐1.3 ‐0.7\n(§4) (phenylalkylamine) (antagonist radioligand) […]\n(§5) 51 Na+ channel (site 2) (antagonist radioligand) 0.6 11.7 6.1\n(§6) 52 Cl‐ channel (GABA‐gated) (antagonist 2.7 ‐5.3 ‐1.3 […]\n(§7) Table S1. In vitro binding assays. An ExpresSProfile screen of PTX-BD4-3 binding to a panel of pharmacologically relevant receptors was conducted by Cerep, Inc.\n(§8) (Eurofins Panlabs, MO). The results are expressed as percent inhibition of control specific binding obtained in the presence of 10 micromolar PTX-BD4-3. In this assay, values below 50% indicate no specific binding of PTX-BD4-3. The assay was negative for PTX-BD4-3 binding to all of the 55 receptors in the screen.\n(§9) (also on this page, place not known: 2B 5‐HT 3 5‐HT 5a 5‐HT 6 5‐HT 7 (agonis t VPAC 1 V 1 Ca 2+ K V SK Ca Na + Cl ‐ 5‐HT Disease Models & Mechanisms: doi:10.1242/dmm.044685: Supplementary information Disease Models & Mechanisms • Supplementary information)"}, "D1 (h)": {"target": "T2, D1 (h) (Homo sapiens, UniProt P21728)", "T2 construct": "purchased Cerep (ExpresSProfile)", "T2 sequence (P21728 whole entry)": "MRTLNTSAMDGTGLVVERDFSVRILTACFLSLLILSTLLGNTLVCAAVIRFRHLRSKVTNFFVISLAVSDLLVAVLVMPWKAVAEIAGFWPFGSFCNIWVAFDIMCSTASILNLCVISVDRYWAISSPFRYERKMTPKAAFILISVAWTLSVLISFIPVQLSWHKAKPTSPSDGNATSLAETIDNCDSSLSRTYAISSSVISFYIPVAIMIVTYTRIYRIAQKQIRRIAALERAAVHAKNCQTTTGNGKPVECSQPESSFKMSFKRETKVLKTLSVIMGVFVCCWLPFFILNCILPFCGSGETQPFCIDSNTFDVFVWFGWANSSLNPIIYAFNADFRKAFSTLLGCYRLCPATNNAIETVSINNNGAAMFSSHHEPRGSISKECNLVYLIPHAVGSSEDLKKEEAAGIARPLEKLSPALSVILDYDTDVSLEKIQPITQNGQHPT", "assay": "Cerep ExpresSProfile radioligand binding", "settings": "10 micromolar, antagonist radioligand", "experimental": "as §1, §2, §3, §4, §5, §6, §7, §8, §9"}, "A1 (h)": {"target": "T3, A1 (h) (Homo sapiens, UniProt P30542)", "T3 construct": "purchased Cerep (ExpresSProfile)", "T3 sequence (P30542 1-326)": "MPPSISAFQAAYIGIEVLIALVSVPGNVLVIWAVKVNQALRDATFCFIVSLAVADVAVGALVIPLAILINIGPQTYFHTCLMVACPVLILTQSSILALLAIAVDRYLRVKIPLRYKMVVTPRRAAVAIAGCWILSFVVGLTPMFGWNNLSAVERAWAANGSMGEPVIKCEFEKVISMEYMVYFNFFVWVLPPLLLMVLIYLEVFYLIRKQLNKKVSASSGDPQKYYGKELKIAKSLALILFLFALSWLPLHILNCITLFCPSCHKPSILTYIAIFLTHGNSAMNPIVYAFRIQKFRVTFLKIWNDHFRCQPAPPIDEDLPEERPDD", "assay": "Cerep ExpresSProfile radioligand binding", "settings": "10 micromolar, agonist radioligand", "experimental": "as §1, §2, §3, §4, §5, §6, §7, §8, §9"}, "GAL2 (h)": {"target": "T4, GAL2 (h) (Homo sapiens, UniProt O43603)", "T4 construct": "purchased Cerep (ExpresSProfile)", "T4 sequence (O43603 whole entry)": "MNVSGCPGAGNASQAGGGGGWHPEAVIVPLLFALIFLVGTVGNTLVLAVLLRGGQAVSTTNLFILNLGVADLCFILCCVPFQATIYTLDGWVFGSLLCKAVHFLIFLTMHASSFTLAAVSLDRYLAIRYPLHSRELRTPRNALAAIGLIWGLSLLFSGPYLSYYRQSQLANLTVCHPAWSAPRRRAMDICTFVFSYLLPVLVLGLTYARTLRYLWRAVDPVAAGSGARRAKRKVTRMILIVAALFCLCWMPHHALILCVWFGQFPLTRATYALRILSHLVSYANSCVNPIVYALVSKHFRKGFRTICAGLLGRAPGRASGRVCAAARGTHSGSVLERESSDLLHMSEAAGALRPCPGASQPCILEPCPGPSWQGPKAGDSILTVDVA", "assay": "Cerep ExpresSProfile radioligand binding", "settings": "10 micromolar; agonist radioligand; read-out: % Inhibition of Control Specific Binding 2nd", "experimental": "as §1, §2, §3, §4, §5, §6, §7, §8, §9"}, "B2 (h)": {"target": "T5, B2 (h) (Homo sapiens, UniProt P30411)", "T5 construct": "purchased Cerep (ExpresSProfile)", "T5 sequence (P30411 1-391)": "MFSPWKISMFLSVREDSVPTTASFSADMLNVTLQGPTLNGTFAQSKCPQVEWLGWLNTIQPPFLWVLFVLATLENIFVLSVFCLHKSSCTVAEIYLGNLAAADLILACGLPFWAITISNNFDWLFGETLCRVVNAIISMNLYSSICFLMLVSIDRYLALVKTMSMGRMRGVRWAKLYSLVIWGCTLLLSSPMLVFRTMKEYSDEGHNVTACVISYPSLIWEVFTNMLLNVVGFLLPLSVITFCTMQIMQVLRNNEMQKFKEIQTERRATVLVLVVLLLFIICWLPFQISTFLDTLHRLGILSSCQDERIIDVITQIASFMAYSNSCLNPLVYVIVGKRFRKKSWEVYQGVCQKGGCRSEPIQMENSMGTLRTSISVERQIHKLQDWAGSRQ", "assay": "Cerep ExpresSProfile radioligand binding", "settings": "10 micromolar, agonist radioligand", "experimental": "as §1, §2, §3, §4, §5, §6, §7, §8, §9"}, "D2S (h)": {"target": "T6, D2S (h) (Homo sapiens, UniProt P14416)", "T6 construct": "purchased Cerep (ExpresSProfile)", "T6 sequence (P14416 1-414 isoform P14416-2)": "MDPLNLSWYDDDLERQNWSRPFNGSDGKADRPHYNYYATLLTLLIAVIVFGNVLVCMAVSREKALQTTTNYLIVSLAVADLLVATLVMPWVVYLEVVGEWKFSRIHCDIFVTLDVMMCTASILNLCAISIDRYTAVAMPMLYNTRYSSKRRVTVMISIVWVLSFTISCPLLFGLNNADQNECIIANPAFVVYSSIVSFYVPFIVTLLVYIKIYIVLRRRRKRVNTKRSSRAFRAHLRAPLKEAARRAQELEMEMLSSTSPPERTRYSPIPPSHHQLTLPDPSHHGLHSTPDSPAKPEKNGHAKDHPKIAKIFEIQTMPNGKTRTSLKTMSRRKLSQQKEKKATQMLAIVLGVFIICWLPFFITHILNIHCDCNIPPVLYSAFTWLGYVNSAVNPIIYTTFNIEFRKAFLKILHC", "assay": "Cerep ExpresSProfile radioligand binding", "settings": "10 micromolar; antagonist radioligand; read-out: % Inhibition of Control Specific Binding 2nd", "experimental": "as §1, §2, §3, §4, §5, §6, §7, §8, §9"}, "GABA (non-selective)": {"system": "GABA (non-selective)", "assay": "Cerep ExpresSProfile radioligand binding", "settings": "10 micromolar; agonist radioligand", "experimental": "as §1, §2, §3, §4, §5, §6, §7, §8, §9"}, "[3]": {"settings": "read-out: % Inhibition of Control Specific Binding 1st"}, "[4]": {"settings": "read-out: % Inhibition of Control Specific Binding Mean"}, "[5]": {"settings": "read-out: % Inhibition of Control Specific Binding 2nd"}}, "note": "Where two headings read alike, the source gives them in different places."}
{"smiles": "COCCN(C)C(=O)c1cc(C(=O)N(C)CCOC)cc(C(=O)N(C)CCOC)c1", "note": "[PTX-BD4-3, benzene-1,3,5-tricarboxylic acid tris-[(2-methoxy-ethyl)-methyl-amide]]", "values": [{"measurement": "change of global phenotypic severity scores over the time course", "setting": "[1]; 5 mg/kg q72 h, pre-treatment vs 8 weeks", "value": "did not increase significantly"}, {"measurement": "group average phenotype severity score", "setting": "[1]; Week 2, scoring range 0-12, pre-treatment 2.73", "value": 3.46}, {"measurement": "group average phenotype severity score", "setting": "[1]; Week 4, scoring range 0-12", "value": 3.66}, {"measurement": "group average phenotype severity score", "setting": "[1]; Week 6, scoring range 0-12", "value": 4.33}, {"measurement": "group average phenotype severity score", "setting": "[1]; Week 8, scoring range 0-12", "value": 3.66}, {"measurement": "apnea index", "setting": "[2]; Het mice, 5 mg/kg i.p. q72 h for 4 weeks, 24 h after last dose, vs saline-treated Het", "value": "significantly reduced"}, {"measurement": "apnea index", "setting": "[2]; Het mice, 5 mg/kg i.p. q72 h for 8 weeks, 24 h after last dose, vs saline-treated Het", "value": "significantly reduced"}, {"measurement": "apnea index", "setting": "[2]; single dose 5 mg/kg i.p., drug-naïve mice at 24 weeks of age, 24 h after dosing", "value": "no change"}, {"measurement": "inhibition at 10 µM", "setting": "5-HT2A (h); [3]", "value": 4.8, "unit": "%"}, {"measurement": "inhibition at 10 µM", "setting": "5-HT2A (h); [4]", "value": 0, "unit": "%"}, {"measurement": "inhibition at 10 µM", "setting": "D1 (h); [3]", "value": 10.7, "unit": "%"}, {"measurement": "inhibition at 10 µM", "setting": "D1 (h); [5]", "value": 1.3, "unit": "%"}, {"measurement": "inhibition at 10 µM", "setting": "D1 (h); [4]", "value": 6, "unit": "%"}, {"measurement": "inhibition at 10 µM", "setting": "A1 (h); [3]", "value": 8.9, "unit": "%"}, {"measurement": "inhibition at 10 µM", "setting": "A1 (h); [5]", "value": 5.6, "unit": "%"}, {"measurement": "inhibition at 10 µM", "setting": "A1 (h); [4]", "value": 7.2, "unit": "%"}, {"measurement": "inhibition at 10 µM", "setting": "GAL2 (h)", "value": 6.3, "unit": "%"}, {"measurement": "inhibition at 10 µM", "setting": "B2 (h); [3]", "value": 8.1, "unit": "%"}, {"measurement": "inhibition at 10 µM", "setting": "B2 (h); [5]", "value": 0.3, "unit": "%"}, {"measurement": "inhibition at 10 µM", "setting": "B2 (h); [4]", "value": 4.2, "unit": "%"}, {"measurement": "inhibition at 10 µM", "setting": "D2S (h)", "value": 2.4, "unit": "%"}, {"measurement": "% Inhibition of Control Specific Binding 1st", "setting": "GABA (non-selective)", "value": 16.5, "unit": "%"}, {"measurement": "% Inhibition of Control Specific Binding 2nd", "setting": "GABA (non-selective)", "value": 19.1, "unit": "%"}, {"measurement": "% Inhibition of Control Specific Binding Mean", "setting": "GABA (non-selective)", "value": 17.8, "unit": "%"}]}
